Publication PMC7692329, “Inhibitory Effect of AB-PINACA, Indazole Carboxamide Synthetic Cannabinoid, on Human Major Drug-Metabolizing Enzymes and Transporters” (Pharmaceutics, 2020)
Entries after “also recorded” stand apart in the source; their conditions may differ. Where two headings read alike, the source gives them in different places.

What was measured:
OCT1 = target: T1, OCT1 (Homo sapiens, UniProt O15245); assay: OCT1-mediated methyl-4-phenylpyridinium uptake in HEK293-OCT1 cells; format: in vitro ADME
T1 construct: host or cells: HEK293
T1 sequence (O15245 1-554): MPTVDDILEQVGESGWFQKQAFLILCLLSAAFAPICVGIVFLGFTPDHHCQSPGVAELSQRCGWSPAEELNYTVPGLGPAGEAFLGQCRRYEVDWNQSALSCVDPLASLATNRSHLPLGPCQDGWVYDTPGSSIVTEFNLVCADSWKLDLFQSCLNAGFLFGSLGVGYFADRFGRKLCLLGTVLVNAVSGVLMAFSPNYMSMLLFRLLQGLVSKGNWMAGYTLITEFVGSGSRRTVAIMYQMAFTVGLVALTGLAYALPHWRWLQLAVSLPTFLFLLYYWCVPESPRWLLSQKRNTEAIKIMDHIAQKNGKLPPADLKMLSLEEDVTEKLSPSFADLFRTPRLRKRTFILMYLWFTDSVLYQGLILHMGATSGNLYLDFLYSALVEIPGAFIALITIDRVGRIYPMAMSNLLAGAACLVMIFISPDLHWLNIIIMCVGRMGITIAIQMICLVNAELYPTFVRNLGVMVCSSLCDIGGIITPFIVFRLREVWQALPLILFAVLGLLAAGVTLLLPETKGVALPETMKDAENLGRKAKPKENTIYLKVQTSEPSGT

OCT2 = target: T2, OCT2 (Homo sapiens, UniProt O15244); assay: OCT2-mediated methyl-4-phenylpyridinium uptake in HEK293-OCT2 cells; format: in vitro ADME
T2 construct: host or cells: HEK293

OAT3 = target: T3, OAT3 (Homo sapiens, UniProt Q8TCC7); assay: OAT3-mediated estrone-3-sulfate uptake in HEK293-OAT3 cells; format: in vitro ADME
T3 construct: host or cells: HEK293
T3 sequence (Q8TCC7 1-542): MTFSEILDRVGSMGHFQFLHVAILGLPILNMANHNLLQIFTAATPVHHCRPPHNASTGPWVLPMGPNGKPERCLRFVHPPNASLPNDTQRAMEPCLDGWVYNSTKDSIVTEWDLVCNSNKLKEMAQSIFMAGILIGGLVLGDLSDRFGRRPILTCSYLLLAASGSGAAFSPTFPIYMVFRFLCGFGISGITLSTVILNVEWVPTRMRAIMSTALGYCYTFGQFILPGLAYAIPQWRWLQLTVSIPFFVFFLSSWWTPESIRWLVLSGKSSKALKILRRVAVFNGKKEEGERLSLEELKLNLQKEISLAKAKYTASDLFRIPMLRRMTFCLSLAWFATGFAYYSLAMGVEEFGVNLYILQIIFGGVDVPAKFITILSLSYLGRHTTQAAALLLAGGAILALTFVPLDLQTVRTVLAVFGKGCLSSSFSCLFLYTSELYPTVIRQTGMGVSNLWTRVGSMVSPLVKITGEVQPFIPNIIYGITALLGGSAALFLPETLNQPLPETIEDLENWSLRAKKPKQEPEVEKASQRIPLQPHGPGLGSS

OATP1B3 = target: T4, OATP1B3 (Homo sapiens, UniProt Q9NPD5); assay: OATP1B3-mediated estradiol-17β-D-glucuronide uptake in HEK293-OATP1B3 cells; format: in vitro ADME
T4 construct: host or cells: HEK293

[1] = tested on: human cannabinoid receptor type 2 (hCB2); conditions: cited from earlier work
[2] = design: method as in PMID 26105953; conditions: cited from earlier work
[3] = 25 of 58 cases; dose regimen not specified; cited from earlier work
[4] = child, chewing an AB-PINACA contaminated cigarette; cited from earlier work
CYP2B6 = CYP2B6 (Homo sapiens, UniProt P20813); assay: CYP2B6 bupropion hydroxylase inhibition in ultrapooled human liver microsomes
UGT1A1 = UGT1A1 (Homo sapiens, UniProt P22309); assay: UGT1A1 SN-38 glucuronidation inhibition in ultrapooled human liver microsomes
CYP1A2 = CYP1A2 (Homo sapiens, UniProt P05177); assay: CYP1A2 phenacetin O-deethylase inhibition in ultrapooled human liver microsomes
CYP2D6 = CYP2D6 (Homo sapiens, UniProt P10635); assay: CYP2D6 bufuralol 1'-hydroxylase inhibition in ultrapooled human liver microsomes
CYP2C9 = CYP2C9 (Homo sapiens, UniProt P11712); assay: CYP2C9 diclofenac 4'-hydroxylase inhibition in ultrapooled human liver microsomes; conditions: for IC50: CYP2C9 diclofenac 4'-hydroxylase, ultrapooled human liver microsomes
UGT2B7 = UGT2B7 (Homo sapiens, UniProt P16662); assay: UGT2B7 naloxone 3-β-D-glucuronidation inhibition in ultrapooled human liver microsomes
CYP2C19 = CYP2C19 (Homo sapiens, UniProt P33261); assay: CYP2C19 [S]-mephenytoin 4'-hydroxylase inhibition in ultrapooled human liver microsomes; conditions: for IC50: CYP2C19 [S]-mephenytoin 4'-hydroxylase, ultrapooled human liver microsomes
UGT1A6 = UGT1A6 (Homo sapiens, UniProt P19224); assay: UGT1A6 N-acetylserotonin glucuronidation inhibition in ultrapooled human liver microsomes
UGT1A9 = UGT1A9 (Homo sapiens, UniProt O60656); assay: UGT1A9 mycophenolic acid glucuronidation inhibition in ultrapooled human liver microsomes
UGT1A3 = UGT1A3 (Homo sapiens, UniProt P35503); assay: UGT1A3 chenodeoxycholic acid 24-acyl-β-glucuronidation inhibition in ultrapooled human liver microsomes
CYP3A4 = CYP3A4 (Homo sapiens, UniProt P08684); assay: CYP3A4 midazolam 1'-hydroxylase inhibition and inactivation kinetics in ultrapooled human liver microsomes; conditions: for IC50: CYP3A4 midazolam 1'-hydroxylase, ultrapooled human liver microsomes
[5] = IC50 With NADPH Preincubation, 30-min preincubation with NADPH
[6] = IC50 Without NADPH Preincubation, without NADPH preincubation
[7] = human, liver microsomes, pH 7.4, probe midazolam

Chain of CYP2C9 (P11712 whole entry): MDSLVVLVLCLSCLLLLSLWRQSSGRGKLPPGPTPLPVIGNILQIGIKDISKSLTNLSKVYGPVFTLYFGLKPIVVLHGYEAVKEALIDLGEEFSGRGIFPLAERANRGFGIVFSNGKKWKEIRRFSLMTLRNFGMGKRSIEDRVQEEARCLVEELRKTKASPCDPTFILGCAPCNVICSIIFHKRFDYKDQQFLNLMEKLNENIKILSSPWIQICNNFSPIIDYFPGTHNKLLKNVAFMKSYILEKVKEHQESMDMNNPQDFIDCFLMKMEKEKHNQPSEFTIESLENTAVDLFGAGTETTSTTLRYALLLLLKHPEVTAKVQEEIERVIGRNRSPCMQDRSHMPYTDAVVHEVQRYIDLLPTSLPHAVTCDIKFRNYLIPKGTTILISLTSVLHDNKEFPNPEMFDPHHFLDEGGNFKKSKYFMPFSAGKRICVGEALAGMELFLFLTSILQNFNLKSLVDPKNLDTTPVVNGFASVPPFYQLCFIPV
Chain of CYP2C19 (P33261 whole entry): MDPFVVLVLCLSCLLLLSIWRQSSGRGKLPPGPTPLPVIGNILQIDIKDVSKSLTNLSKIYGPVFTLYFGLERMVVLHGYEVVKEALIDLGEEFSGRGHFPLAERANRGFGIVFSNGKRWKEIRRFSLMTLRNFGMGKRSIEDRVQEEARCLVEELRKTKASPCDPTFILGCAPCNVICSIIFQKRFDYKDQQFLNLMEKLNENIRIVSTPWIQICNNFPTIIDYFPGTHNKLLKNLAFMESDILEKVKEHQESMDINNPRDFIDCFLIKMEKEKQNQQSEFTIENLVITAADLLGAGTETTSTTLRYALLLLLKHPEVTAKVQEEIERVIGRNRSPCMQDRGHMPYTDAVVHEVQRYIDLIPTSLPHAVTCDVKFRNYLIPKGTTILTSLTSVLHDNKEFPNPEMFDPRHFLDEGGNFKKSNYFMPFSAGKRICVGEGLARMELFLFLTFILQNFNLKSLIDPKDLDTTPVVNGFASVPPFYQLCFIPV
Chain of CYP3A4 (P08684 whole entry): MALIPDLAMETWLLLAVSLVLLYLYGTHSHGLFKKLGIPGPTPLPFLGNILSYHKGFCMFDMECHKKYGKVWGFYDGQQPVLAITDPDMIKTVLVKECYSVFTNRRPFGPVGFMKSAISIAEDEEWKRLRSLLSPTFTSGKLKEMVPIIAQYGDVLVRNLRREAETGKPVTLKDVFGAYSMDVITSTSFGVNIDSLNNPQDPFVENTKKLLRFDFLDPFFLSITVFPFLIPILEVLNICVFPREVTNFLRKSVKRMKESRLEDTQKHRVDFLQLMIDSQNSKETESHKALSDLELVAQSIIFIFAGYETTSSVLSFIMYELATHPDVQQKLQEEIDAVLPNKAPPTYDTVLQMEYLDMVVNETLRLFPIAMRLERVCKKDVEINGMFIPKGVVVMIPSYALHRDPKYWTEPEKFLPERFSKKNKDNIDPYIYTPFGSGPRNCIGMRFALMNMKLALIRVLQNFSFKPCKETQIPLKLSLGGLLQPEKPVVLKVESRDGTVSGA
Chain of CYP2B6 (P20813 whole entry): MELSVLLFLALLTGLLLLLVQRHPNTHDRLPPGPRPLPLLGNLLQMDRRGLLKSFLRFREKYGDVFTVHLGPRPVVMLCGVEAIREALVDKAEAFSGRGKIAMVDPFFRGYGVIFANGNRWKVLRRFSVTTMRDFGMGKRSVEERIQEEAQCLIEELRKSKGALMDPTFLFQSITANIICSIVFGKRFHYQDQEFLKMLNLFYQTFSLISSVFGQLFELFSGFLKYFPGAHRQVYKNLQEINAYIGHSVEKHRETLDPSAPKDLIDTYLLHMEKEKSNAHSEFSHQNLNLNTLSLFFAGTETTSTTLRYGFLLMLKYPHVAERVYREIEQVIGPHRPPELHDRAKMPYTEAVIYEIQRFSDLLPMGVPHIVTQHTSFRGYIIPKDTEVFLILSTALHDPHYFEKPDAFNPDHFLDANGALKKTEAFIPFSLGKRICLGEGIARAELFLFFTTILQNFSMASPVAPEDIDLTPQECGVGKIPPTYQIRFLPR
Chain of CYP1A2 (P05177 whole entry): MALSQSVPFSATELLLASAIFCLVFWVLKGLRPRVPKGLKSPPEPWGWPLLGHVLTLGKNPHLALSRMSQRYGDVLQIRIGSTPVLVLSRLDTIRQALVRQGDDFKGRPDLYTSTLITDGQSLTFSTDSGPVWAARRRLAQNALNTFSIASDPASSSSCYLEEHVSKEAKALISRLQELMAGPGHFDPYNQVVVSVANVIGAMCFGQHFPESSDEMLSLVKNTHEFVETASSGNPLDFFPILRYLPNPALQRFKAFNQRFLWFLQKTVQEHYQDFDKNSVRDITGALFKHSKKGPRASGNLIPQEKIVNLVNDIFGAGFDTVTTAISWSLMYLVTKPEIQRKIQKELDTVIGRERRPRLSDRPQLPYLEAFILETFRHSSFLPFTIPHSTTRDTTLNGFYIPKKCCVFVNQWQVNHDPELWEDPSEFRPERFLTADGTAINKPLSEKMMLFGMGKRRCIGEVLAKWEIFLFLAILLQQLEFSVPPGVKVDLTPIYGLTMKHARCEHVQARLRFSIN
Chain of CYP2D6 (P10635 whole entry): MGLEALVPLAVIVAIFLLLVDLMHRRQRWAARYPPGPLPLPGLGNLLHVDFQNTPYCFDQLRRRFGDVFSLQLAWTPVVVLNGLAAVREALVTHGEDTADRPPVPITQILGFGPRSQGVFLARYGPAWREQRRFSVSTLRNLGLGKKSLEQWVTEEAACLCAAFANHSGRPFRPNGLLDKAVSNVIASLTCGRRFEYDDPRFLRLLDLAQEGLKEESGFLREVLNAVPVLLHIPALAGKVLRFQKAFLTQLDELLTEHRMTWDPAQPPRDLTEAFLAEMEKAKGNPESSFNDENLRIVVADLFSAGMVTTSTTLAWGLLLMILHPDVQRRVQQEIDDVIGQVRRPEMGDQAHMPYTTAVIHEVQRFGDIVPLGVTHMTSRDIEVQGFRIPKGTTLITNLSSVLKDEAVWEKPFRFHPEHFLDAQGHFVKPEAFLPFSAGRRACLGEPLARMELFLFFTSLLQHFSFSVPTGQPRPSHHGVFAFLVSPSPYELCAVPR
Chain of UGT1A9 (O60656 26-530): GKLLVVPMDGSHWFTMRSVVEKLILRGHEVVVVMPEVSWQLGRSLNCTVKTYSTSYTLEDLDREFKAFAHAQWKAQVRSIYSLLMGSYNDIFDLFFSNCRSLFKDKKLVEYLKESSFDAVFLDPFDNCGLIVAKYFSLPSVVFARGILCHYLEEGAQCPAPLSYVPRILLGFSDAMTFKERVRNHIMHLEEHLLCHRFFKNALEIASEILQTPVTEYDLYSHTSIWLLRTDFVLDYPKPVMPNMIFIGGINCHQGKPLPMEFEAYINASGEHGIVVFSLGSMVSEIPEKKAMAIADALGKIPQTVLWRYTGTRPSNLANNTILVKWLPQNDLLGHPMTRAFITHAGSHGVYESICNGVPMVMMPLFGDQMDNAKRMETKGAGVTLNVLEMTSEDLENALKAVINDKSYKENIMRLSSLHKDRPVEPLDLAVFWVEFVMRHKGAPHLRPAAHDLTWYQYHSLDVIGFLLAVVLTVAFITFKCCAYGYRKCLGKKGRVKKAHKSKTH
Chain of UGT1A1 (P22309 26-533): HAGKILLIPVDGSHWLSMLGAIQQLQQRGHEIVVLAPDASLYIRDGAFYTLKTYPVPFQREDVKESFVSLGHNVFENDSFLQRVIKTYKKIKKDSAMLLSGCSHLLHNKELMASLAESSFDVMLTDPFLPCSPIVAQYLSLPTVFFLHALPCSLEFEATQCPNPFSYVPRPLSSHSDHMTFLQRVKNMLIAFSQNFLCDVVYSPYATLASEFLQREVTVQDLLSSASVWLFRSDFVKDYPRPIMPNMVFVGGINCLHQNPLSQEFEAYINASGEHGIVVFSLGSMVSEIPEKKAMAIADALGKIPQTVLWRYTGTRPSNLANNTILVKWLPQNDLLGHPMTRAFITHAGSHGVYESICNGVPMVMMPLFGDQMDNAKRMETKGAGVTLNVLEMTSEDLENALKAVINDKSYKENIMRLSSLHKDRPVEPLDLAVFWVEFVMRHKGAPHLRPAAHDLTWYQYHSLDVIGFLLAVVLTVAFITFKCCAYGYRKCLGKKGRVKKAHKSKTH
Chain of UGT1A3 (P35503 29-534): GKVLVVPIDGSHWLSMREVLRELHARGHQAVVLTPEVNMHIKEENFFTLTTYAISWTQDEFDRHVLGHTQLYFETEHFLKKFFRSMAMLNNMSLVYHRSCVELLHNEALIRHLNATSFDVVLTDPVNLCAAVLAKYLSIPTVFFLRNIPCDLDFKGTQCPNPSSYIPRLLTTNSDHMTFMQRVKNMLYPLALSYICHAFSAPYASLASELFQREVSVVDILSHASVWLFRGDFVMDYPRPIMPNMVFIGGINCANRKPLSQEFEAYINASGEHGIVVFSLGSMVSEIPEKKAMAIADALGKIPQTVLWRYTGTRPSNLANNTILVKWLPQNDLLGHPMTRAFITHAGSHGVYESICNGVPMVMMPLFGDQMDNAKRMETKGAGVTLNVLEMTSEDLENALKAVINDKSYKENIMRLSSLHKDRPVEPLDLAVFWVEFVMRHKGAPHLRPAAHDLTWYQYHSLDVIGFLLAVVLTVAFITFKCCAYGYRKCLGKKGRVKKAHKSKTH

With CCCCCn1nc(C(=O)N[C@H](C(N)=O)C(C)C)c2ccccc21 [AB-PINACA, N-[(2S)-1-amino-3-methyl-1-oxobutan-2-yl]-1-pentyl-1H-indazole-3-carboxamide] the IC50 (OCT1) was 136 µM, the Ki (OCT1) was 146 µM and the “Mode of Inhibition, OCT1” value (OCT1; methyl-4-phenylpyridinium uptake, HEK293-OCT1 cells) was “mixed mode of inhibition”. The IC50 (OCT2) was > 250 µM, the IC50 (OAT3) was 11.8 µM and the Ki (OAT3) was 8.3 µM. For the same compound, the “Mode of Inhibition, OAT3” value (OAT3; estrone-3-sulfate uptake, HEK293-OAT3 cells) was “competitively inhibited; also recorded: competitive inhibition”, the IC50 (OATP1B3) was > 250 µM and the “fold higher in vitro binding affinity to hCB2 compared with Δ9-THC” value [1] was 40.9 fold. The Ki ([1]; read-out: receptor binding affinity to hCB2 (Ki)) was 0.00088 µM, the “substitution for Δ9-THC” value [2] was “substituted fully and dose dependently” and the “blood (plasma) concentration in suspected impaired driving cases” value [3] was 1.8 to 127 nM. For the same compound, the serum level [4] was 42 ng/mL, the IC50 (CYP2B6) was > 100 µM and the IC50 (CYP2B6; read-out: IC50 With NADPH Preincubation, CYP2B6 bupropion hydroxylase, ultrapooled human liver microsomes, 30-min preincubation with NADPH) was > 100 µM. The IC50 (UGT1A1) was > 100 µM, the IC50 (CYP1A2) was > 100 µM and the IC50 (CYP1A2; read-out: IC50 With NADPH Preincubation, CYP1A2 phenacetin O-deethylase, ultrapooled human liver microsomes, 30-min preincubation with NADPH) was > 100 µM. For the same compound, the IC50 (CYP2D6) was > 100 µM, the IC50 (CYP2D6; read-out: IC50 With NADPH Preincubation, CYP2D6 bufuralol 1'-hydroxylase, ultrapooled human liver microsomes, 30-min preincubation with NADPH) was > 100 µM and the IC50 (CYP2C9; [5]) was 19.3 µM. For the same compound, the IC50 (CYP2C9; [6]) was 17.4 µM, the Ki (CYP2C9; Ki, CYP2C9, diclofenac 4'-hydroxylation, human liver microsomes, Lineweaver–Burk and Dixon plots) was 16.1 µM and the IC50 shift at 15 min (CYP2C9; human, liver microsomes, pH 7.4, probe diclofenac) was 0.9. The IC50 (UGT2B7) was > 100 µM, the IC50 (CYP2C19; [5]) was 23 µM and the IC50 (CYP2C19; [6]) was 20 µM. For the same compound, the Ki (CYP2C19; Ki, CYP2C19, [S]-mephenytoin 4'-hydroxylation, human liver microsomes, Lineweaver–Burk and Dixon plots) was 6.7 µM, the IC50 shift at 15 min (CYP2C19; human, liver microsomes, pH 7.4, probe [S]-mephenytoin) was 0.9 and the IC50 (UGT1A6) was 94 µM. The IC50 (UGT1A9) was 65.2 µM, the IC50 (UGT1A3) was 84.1 µM and the Ki (CYP3A4) was 17.6 µM. For the same compound, the IC50 (CYP3A4; [5]) was 24.4 µM, the IC50 (CYP3A4; [6]) was 66.4 µM and the IC50 shift at 15 min (CYP3A4; [7]) was 2.7. For the same compound, the kinact (CYP3A4; [7]) was 0.000674 s⁻¹ and the “Mode of Inhibition, CYP3A4” value (CYP3A4; midazolam 1'-hydroxylation, human liver microsomes) was “time-dependent inhibition”.
